Reference: the NIST ThermoML archive (doi:10.1016/j.jct.2014.06.023)
Values joined by “and” are separate entries in the source; they are usually repeats but may differ in a detail not shown here. Equal values may be shown once.

Conditions: Buoyancy - hydrostatic balance with magnetic suspension - one sinker

FCF [difluoromethane]
Conditions | mass density
215.35 K, 1103.8 kPa, Liquid | 1230.26 kg/m3
215.35 K, 1325.8 kPa, Liquid | 1230.63 kg/m3
215.36 K, 1538.7 kPa, Liquid | 1230.95 kg/m3
215.36 K, 1697.9 kPa, Liquid | 1231.2 kg/m3
215.37 K, 103.26 kPa, Liquid | 1228.62 kg/m3
215.37 K, 297.95 kPa, Liquid | 1228.9 kg/m3
215.37 K, 703.99 kPa, Liquid | 1229.57 kg/m3
215.39 K, 1295 kPa, Liquid | 1230.49 kg/m3
224.87 K, 174.37 kPa, Liquid | 1202.55 kg/m3
224.87 K, 584.91 kPa, Liquid | 1203.31 kg/m3
224.88 K, 1061.9 kPa, Liquid | 1204.12 kg/m3
224.89 K, 1060.1 kPa, Liquid | 1204.1 kg/m3
224.91 K, 1506.3 kPa, Liquid | 1204.87 kg/m3
234.46 K, 1590 kPa, Liquid | 1178.28 kg/m3
234.51 K, 797.4 kPa, Liquid | 1176.49 kg/m3
234.52 K, 405.74 kPa, Liquid | 1175.67 kg/m3
234.55 K, 274.67 kPa, Liquid | 1175.3 kg/m3
234.56 K, 1164.8 kPa, Liquid | 1177.09 kg/m3
235.12 K, 296.35 kPa, Liquid | 1173.64 kg/m3
235.12 K, 647.72 kPa, Liquid | 1174.42 kg/m3
235.12 K, 648.42 kPa, Liquid | 1174.42 kg/m3
235.12 K, 1119.6 kPa, Liquid | 1175.37 kg/m3
235.12 K, 1629.1 kPa, Liquid | 1176.43 kg/m3
235.13 K, 296.36 kPa, Liquid | 1173.65 kg/m3
235.13 K, 1583.2 kPa, Liquid | 1176.31 kg/m3
235.14 K, 1742.1 kPa, Liquid | 1176.61 kg/m3
244.28 K, 721.81 kPa, Liquid | 1147.83 kg/m3
244.28 K, 1218.8 kPa, Liquid | 1148.97 kg/m3
244.29 K, 432.84 kPa, Liquid | 1147.12 kg/m3
244.29 K, 1506.2 kPa, Liquid | 1149.63 kg/m3
244.3 K, 1507.8 kPa, Liquid | 1149.6 kg/m3
244.89 K, 745.03 kPa, Liquid | 1145.98 kg/m3
244.89 K, 1636.6 kPa, Liquid | 1148.09 kg/m3
244.9 K, 364.35 kPa, Liquid | 1145.04 kg/m3
244.9 K, 1266.5 kPa, Liquid | 1147.19 kg/m3
244.9 K, 1785 kPa, Liquid | 1148.39 kg/m3
244.91 K, 1786.1 kPa, Liquid | 1148.39 kg/m3
254.08 K, 382.25 kPa, Gas | 10.3656 kg/m3
254.09 K, 214.16 kPa, Gas | 5.5491 kg/m3
254.09 K, 313.9 kPa, Gas | 8.3508 kg/m3
254.1 K, 104.12 kPa, Gas | 2.6275 kg/m3
254.65 K, 795.59 kPa, Liquid | 1116.29 kg/m3
254.65 K, 1111.6 kPa, Liquid | 1117.17 kg/m3
254.65 K, 1794.7 kPa, Liquid | 1119.02 kg/m3
254.66 K, 487.53 kPa, Liquid | 1115.4 kg/m3
254.66 K, 1451 kPa, Liquid | 1118.05 kg/m3
254.66 K, 1795.2 kPa, Liquid | 1119 kg/m3
254.67 K, 1113.8 kPa, Liquid | 1117.12 kg/m3
254.67 K, 1449.1 kPa, Liquid | 1118.02 kg/m3
263.88 K, 107.72 kPa, Gas | 2.6075 kg/m3
263.88 K, 204.78 kPa, Gas | 5.0609 kg/m3
263.88 K, 306.27 kPa, Gas | 7.74 kg/m3
263.88 K, 401.96 kPa, Gas | 10.3885 kg/m3
263.88 K, 506.07 kPa, Gas | 13.4247 kg/m3
263.88 K, 571.82 kPa, Gas | 15.4369 kg/m3
263.89 K, 71.43 kPa, Gas | 1.7159 kg/m3
264.46 K, 1262.6 kPa, Liquid | 1086.13 kg/m3
264.46 K, 1771.5 kPa, Liquid | 1087.75 kg/m3
264.47 K, 883.24 kPa, Liquid | 1084.88 kg/m3
264.47 K, 1555.9 kPa, Liquid | 1087.04 kg/m3
264.47 K, 1797.3 kPa, Liquid | 1087.79 kg/m3
264.47 K, 1799.4 kPa, Liquid | 1087.82 kg/m3
264.48 K, 882.25 kPa, Liquid | 1084.85 kg/m3
264.48 K, 1561.7 kPa, Liquid | 1087.04 kg/m3
264.49 K, 616.31 kPa, Liquid | 1083.92 kg/m3
273.73 K, 101.73 kPa, Gas | 2.3681 kg/m3
273.73 K, 312.85 kPa, Gas | 7.5636 kg/m3
273.73 K, 513.88 kPa, Gas | 12.9426 kg/m3
273.73 K, 711.85 kPa, Gas | 18.7582 kg/m3
273.73 K, 817.04 kPa, Gas | 22.1108 kg/m3
273.74 K, 224.38 kPa, Gas | 5.3352 kg/m3
273.74 K, 416.77 kPa, Gas | 10.2856 kg/m3
273.74 K, 614.63 kPa, Gas | 15.8288 kg/m3
273.74 K, 771.81 kPa, Gas | 20.6433 kg/m3
273.74 K, 824.1 kPa, Gas | 22.3391 kg/m3
273.74 K, 876.3 kPa, Liquid | 1053.21 kg/m3
273.74 K, 1101.1 kPa, Liquid | 1054.06 kg/m3
273.75 K, 1351.5 kPa, Liquid | 1054.99 kg/m3
273.76 K, 1582.2 kPa, Liquid | 1055.81 kg/m3
283.52 K, 412.99 kPa, Gas | 9.7269 kg/m3
283.52 K, 614.51 kPa, Gas | 15.0118 kg/m3
283.52 K, 710.61 kPa, Gas | 17.6856 kg/m3
283.53 K, 101.75 kPa, Gas | 2.2806 kg/m3
283.53 K, 213.32 kPa, Gas | 4.8632 kg/m3
283.53 K, 312.42 kPa, Gas | 7.2368 kg/m3
283.53 K, 812.63 kPa, Gas | 20.6499 kg/m3
283.54 K, 502.33 kPa, Gas | 12.0197 kg/m3
283.54 K, 1013.2 kPa, Gas | 26.9253 kg/m3 and 26.9235 kg/m3
283.55 K, 911.64 kPa, Gas | 23.6652 kg/m3
283.55 K, 1562.5 kPa, Liquid | 1020.09 kg/m3
283.56 K, 1156 kPa, Liquid | 1018.14 kg/m3
283.56 K, 1382.8 kPa, Liquid | 1019.19 kg/m3
293.32 K, 107.46 kPa, Gas | 2.3235 kg/m3
293.32 K, 432.29 kPa, Gas | 9.7863 kg/m3
293.32 K, 546.17 kPa, Gas | 12.5808 kg/m3
293.32 K, 656.65 kPa, Gas | 15.3945 kg/m3
293.33 K, 1265.1 kPa, Gas | 33.2531 kg/m3
293.33 K, 1397.3 kPa, Gas | 37.8678 kg/m3
293.33 K, 2143.9 kPa, Liquid | 984.45 kg/m3
293.34 K, 760.28 kPa, Gas | 18.1362 kg/m3
293.34 K, 866.25 kPa, Gas | 21.0499 kg/m3
293.34 K, 968.81 kPa, Gas | 23.9856 kg/m3
293.34 K, 1066.3 kPa, Gas | 26.9025 kg/m3
293.34 K, 1161.5 kPa, Gas | 29.864 kg/m3
293.34 K, 1757.2 kPa, Liquid | 982.24 kg/m3
293.35 K, 1537.9 kPa, Liquid | 980.97 kg/m3
293.37 K, 323.39 kPa, Gas | 7.2059 kg/m3
293.38 K, 219.26 kPa, Gas | 4.8156 kg/m3
